Test results: the supplement of paper PMC10307832

Experiments:
Experiment in all cases: relative viability (nuclei count vs DMSO), 5 days (fraction); higher = more cells survive
Salubrinal + Alpelisib = compound: O=C(/C=C/c1ccccc1)NC(NC(=S)Nc1cccc2cccnc12)C(Cl)(Cl)Cl [Salubrinal] + Cc1nc(NC(=O)N2CCC[C@H]2C(N)=O)sc1-c1ccnc(C(C)(C)C(F)(F)F)c1 [Alpelisib] (partner 2 µM)
Method in brief: (§1)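 Each reported value is a median over duplicate plates. It expresses relative viability: treated-well nuclei count divided by vehicle-well nuclei count. Lung cancer cell lines in 1536-well plates were dosed by pin tool a day after seeding, alone with one drug or with a fixed anchor-drug dose plus five library-drug doses (not always all listed) in √10 steps, and nuclei were counted after 5 days.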

[1] = compound: Cc1ccc2nc(NCCN)c3ncc(C)n3c2c1 + O=C(CCCCCCC(=O)Nc1ccccc1)NO [Vorinostat] (partner 1 µM)
Method in brief: as §1

[2] = compound: Cc1ccc2nc(NCCN)c3ncc(C)n3c2c1 + Nc1ncn([C@H]2C[C@H](O)[C@@H](CO)O2)c(=O)n1 [Decitabine] (partner 2 µM)
Method in brief: as §1

Salubrinal + Lapatinib = compound: O=C(/C=C/c1ccccc1)NC(NC(=S)Nc1cccc2cccnc12)C(Cl)(Cl)Cl [Salubrinal] + CS(=O)(=O)CCNCc1ccc(-c2ccc3ncnc(Nc4ccc(OCc5cccc(F)c5)c(Cl)c4)c3c2)o1 [Lapatinib] (partner 2 µM)
Method in brief: as §1

Cell Line: NCI-H1666
- relative viability (Salubrinal + Alpelisib; first compound 0.08 µM): 0.985
- relative viability (Salubrinal + Alpelisib; first compound 0.253 µM): 0.791
- relative viability (Salubrinal + Alpelisib; first compound 0.8 µM): 0.923
- relative viability (Salubrinal + Alpelisib; first compound 2.53 µM): 1.01
- relative viability (Salubrinal + Alpelisib; first compound 8 µM): 0.993
- relative viability ([1]; first compound 0.04 µM): 1.06
- relative viability ([1]; first compound 0.1265 µM): 1.05
- relative viability ([1]; first compound 0.4 µM): 0.925
- relative viability ([1]; first compound 1.265 µM): 0.944
- relative viability ([1]; first compound 4 µM): 1.05
- relative viability ([2]; first compound 0.04 µM): 0.753
- relative viability ([2]; first compound 0.1265 µM): 0.719
- relative viability ([2]; first compound 0.4 µM): 0.692
- relative viability ([2]; first compound 1.265 µM): 0.792
- relative viability ([2]; first compound 4 µM): 0.647
- relative viability (Salubrinal + Lapatinib; first compound 0.08 µM): 0.582
- relative viability (Salubrinal + Lapatinib; first compound 0.253 µM): 0.56
- relative viability (Salubrinal + Lapatinib; first compound 0.8 µM): 0.767
- relative viability (Salubrinal + Lapatinib; first compound 2.53 µM): 0.58
- relative viability (Salubrinal + Lapatinib; first compound 8 µM): 0.691

Cell Line: NCI-H1734
- relative viability (Salubrinal + Alpelisib; first compound 0.08 µM): 0.721
- relative viability (Salubrinal + Alpelisib; first compound 0.253 µM): 0.695
- relative viability (Salubrinal + Alpelisib; first compound 0.8 µM): 0.833
- relative viability (Salubrinal + Alpelisib; first compound 2.53 µM): 0.737
- relative viability (Salubrinal + Alpelisib; first compound 8 µM): 0.749
- relative viability ([1]; first compound 0.04 µM): 0.816
- relative viability ([1]; first compound 0.1265 µM): 0.824
- relative viability ([1]; first compound 0.4 µM): 0.637
- relative viability ([1]; first compound 1.265 µM): 0.733
- relative viability ([1]; first compound 4 µM): 0.77
- relative viability ([2]; first compound 0.04 µM): 0.464
- relative viability ([2]; first compound 0.1265 µM): 0.5
- relative viability ([2]; first compound 0.4 µM): 0.458
- relative viability ([2]; first compound 1.265 µM): 0.501
- relative viability ([2]; first compound 4 µM): 0.511
- relative viability (Salubrinal + Lapatinib; first compound 0.08 µM): 1.11
- relative viability (Salubrinal + Lapatinib; first compound 0.253 µM): 1.08
- relative viability (Salubrinal + Lapatinib; first compound 0.8 µM): 1.18
- relative viability (Salubrinal + Lapatinib; first compound 2.53 µM): 1.05
- relative viability (Salubrinal + Lapatinib; first compound 8 µM): 1.02

Cell Line: NCI-H1755
- relative viability (Salubrinal + Alpelisib; first compound 0.08 µM): 1.04
- relative viability (Salubrinal + Alpelisib; first compound 0.253 µM): 0.795
- relative viability (Salubrinal + Alpelisib; first compound 0.8 µM): 1.01
- relative viability (Salubrinal + Alpelisib; first compound 2.53 µM): 0.948
- relative viability (Salubrinal + Alpelisib; first compound 8 µM): 0.893
- relative viability ([1]; first compound 0.04 µM): 0.806
- relative viability ([1]; first compound 0.1265 µM): 0.899
- relative viability ([1]; first compound 0.4 µM): 0.728
- relative viability ([1]; first compound 1.265 µM): 0.696
- relative viability ([1]; first compound 4 µM): 0.857
- relative viability ([2]; first compound 0.04 µM): 0.716
- relative viability ([2]; first compound 0.1265 µM): 0.764
- relative viability ([2]; first compound 0.4 µM): 0.681
- relative viability ([2]; first compound 1.265 µM): 0.7
- relative viability ([2]; first compound 4 µM): 0.723
- relative viability (Salubrinal + Lapatinib; first compound 0.08 µM): 1.24
- relative viability (Salubrinal + Lapatinib; first compound 0.253 µM): 0.794
- relative viability (Salubrinal + Lapatinib; first compound 0.8 µM): 1.11
- relative viability (Salubrinal + Lapatinib; first compound 2.53 µM): 1.04
- relative viability (Salubrinal + Lapatinib; first compound 8 µM): 0.966

Cell Line: NCI-H1793
- relative viability (Salubrinal + Alpelisib; first compound 0.08 µM): 1
- relative viability (Salubrinal + Alpelisib; first compound 0.253 µM): 0.722
- relative viability (Salubrinal + Alpelisib; first compound 0.8 µM): 0.837
- relative viability (Salubrinal + Alpelisib; first compound 2.53 µM): 0.798
- relative viability (Salubrinal + Alpelisib; first compound 8 µM): 0.617
- relative viability ([1]; first compound 0.04 µM): 0.825
- relative viability ([1]; first compound 0.1265 µM): 0.792
- relative viability ([1]; first compound 0.4 µM): 0.815
- relative viability ([1]; first compound 1.265 µM): 0.642
- relative viability ([1]; first compound 4 µM): 0.679
- relative viability ([2]; first compound 0.04 µM): 0.32
- relative viability ([2]; first compound 0.1265 µM): 0.5
- relative viability ([2]; first compound 0.4 µM): 0.439
- relative viability ([2]; first compound 1.265 µM): 0.383
- relative viability ([2]; first compound 4 µM): 0.453
- relative viability (Salubrinal + Lapatinib; first compound 0.08 µM): 0.947
- relative viability (Salubrinal + Lapatinib; first compound 0.253 µM): 0.654
- relative viability (Salubrinal + Lapatinib; first compound 0.8 µM): 0.657
- relative viability (Salubrinal + Lapatinib; first compound 2.53 µM): 0.818
- relative viability (Salubrinal + Lapatinib; first compound 8 µM): 0.752

Cell Line: NCI-H1915
- relative viability (Salubrinal + Alpelisib; first compound 0.08 µM): 1.06
- relative viability (Salubrinal + Alpelisib; first compound 0.253 µM): 1.08
- relative viability (Salubrinal + Alpelisib; first compound 0.8 µM): 1.11
- relative viability (Salubrinal + Alpelisib; first compound 2.53 µM): 1.06
- relative viability (Salubrinal + Alpelisib; first compound 8 µM): 1.04
- relative viability ([1]; first compound 0.04 µM): 0.515
- relative viability ([1]; first compound 0.1265 µM): 0.506
- relative viability ([1]; first compound 0.4 µM): 0.422
- relative viability ([1]; first compound 1.265 µM): 0.555
- relative viability ([1]; first compound 4 µM): 0.454
- relative viability ([2]; first compound 0.04 µM): 0.265
- relative viability ([2]; first compound 0.1265 µM): 0.248
- relative viability ([2]; first compound 0.4 µM): 0.267
- relative viability ([2]; first compound 1.265 µM): 0.253
- relative viability ([2]; first compound 4 µM): 0.238
- relative viability (Salubrinal + Lapatinib; first compound 0.08 µM): 0.981
- relative viability (Salubrinal + Lapatinib; first compound 0.253 µM): 0.683
- relative viability (Salubrinal + Lapatinib; first compound 0.8 µM): 1.04
- relative viability (Salubrinal + Lapatinib; first compound 2.53 µM): 1
- relative viability (Salubrinal + Lapatinib; first compound 8 µM): 0.963

Cell Line: NCI-H1944
- relative viability (Salubrinal + Alpelisib; first compound 0.08 µM): 0.912
- relative viability (Salubrinal + Alpelisib; first compound 0.253 µM): 0.912
- relative viability (Salubrinal + Alpelisib; first compound 0.8 µM): 0.871
- relative viability (Salubrinal + Alpelisib; first compound 2.53 µM): 0.871
- relative viability (Salubrinal + Alpelisib; first compound 8 µM): 0.795
- relative viability ([1]; first compound 0.04 µM): 0.639
- relative viability ([1]; first compound 0.1265 µM): 0.581
- relative viability ([1]; first compound 0.4 µM): 0.358
- relative viability ([1]; first compound 1.265 µM): 0.491
- relative viability ([1]; first compound 4 µM): 0.581
- relative viability ([2]; first compound 0.04 µM): 0.377
- relative viability ([2]; first compound 0.1265 µM): 0.428
- relative viability ([2]; first compound 0.4 µM): 0.436
- relative viability ([2]; first compound 1.265 µM): 0.418
- relative viability ([2]; first compound 4 µM): 0.422
- relative viability (Salubrinal + Lapatinib; first compound 0.08 µM): 0.583
- relative viability (Salubrinal + Lapatinib; first compound 0.253 µM): 0.899
- relative viability (Salubrinal + Lapatinib; first compound 0.8 µM): 0.804
- relative viability (Salubrinal + Lapatinib; first compound 2.53 µM): 0.902
- relative viability (Salubrinal + Lapatinib; first compound 8 µM): 0.846

Cell Line: NCI-H1975
- relative viability (Salubrinal + Alpelisib; first compound 0.08 µM): 0.713
- relative viability (Salubrinal + Alpelisib; first compound 0.253 µM): 0.467
- relative viability (Salubrinal + Alpelisib; first compound 0.8 µM): 0.766
- relative viability (Salubrinal + Alpelisib; first compound 2.53 µM): 0.674
- relative viability (Salubrinal + Alpelisib; first compound 8 µM): 0.579
- relative viability ([1]; first compound 0.04 µM): 0.733
- relative viability ([1]; first compound 0.1265 µM): 0.711
- relative viability ([1]; first compound 0.4 µM): 0.753
- relative viability ([1]; first compound 1.265 µM): 0.708
- relative viability ([1]; first compound 4 µM): 0.582
- relative viability ([2]; first compound 0.04 µM): 0.384
- relative viability ([2]; first compound 0.1265 µM): 0.394
- relative viability ([2]; first compound 0.4 µM): 0.405
- relative viability ([2]; first compound 1.265 µM): 0.455
- relative viability ([2]; first compound 4 µM): 0.403
- relative viability (Salubrinal + Lapatinib; first compound 0.08 µM): 1.04
- relative viability (Salubrinal + Lapatinib; first compound 0.253 µM): 0.594
- relative viability (Salubrinal + Lapatinib; first compound 0.8 µM): 0.967
- relative viability (Salubrinal + Lapatinib; first compound 2.53 µM): 0.928
- relative viability (Salubrinal + Lapatinib; first compound 8 µM): 0.798

Cell Line: NCI-H1993
- relative viability (Salubrinal + Alpelisib; first compound 0.08 µM): 0.62
- relative viability (Salubrinal + Alpelisib; first compound 0.253 µM): 0.595
- relative viability (Salubrinal + Alpelisib; first compound 0.8 µM): 0.735
- relative viability (Salubrinal + Alpelisib; first compound 2.53 µM): 0.688
- relative viability (Salubrinal + Alpelisib; first compound 8 µM): 0.676
- relative viability ([1]; first compound 0.04 µM): 0.797
- relative viability ([1]; first compound 0.1265 µM): 0.776
- relative viability ([1]; first compound 0.4 µM): 0.727
- relative viability ([1]; first compound 1.265 µM): 0.856
- relative viability ([1]; first compound 4 µM): 0.649
- relative viability ([2]; first compound 0.04 µM): 0.731
- relative viability ([2]; first compound 0.1265 µM): 0.468
- relative viability ([2]; first compound 0.4 µM): 0.632
- relative viability ([2]; first compound 1.265 µM): 0.606
- relative viability ([2]; first compound 4 µM): 0.583
- relative viability (Salubrinal + Lapatinib; first compound 0.08 µM): 0.887
- relative viability (Salubrinal + Lapatinib; first compound 0.253 µM): 0.866
- relative viability (Salubrinal + Lapatinib; first compound 0.8 µM): 0.814
- relative viability (Salubrinal + Lapatinib; first compound 2.53 µM): 1.14
- relative viability (Salubrinal + Lapatinib; first compound 8 µM): 0.9
